According to patent US6531477B1, “6-substituted pyrazolo [3,4-d] pyrimidin-4-ones useful as cyclin dependent kinase inhibitors” (DuPont Pharmaceuticals Company, priority 1998, dated 2003):

Q: Which melting point does the source give for `COc1cccc(Cc2nc3c(c(SC)nn3-c3c(F)cccc3Cl)c(=O)[nH]2)c1` [Example 182] here?
A: 244 to 245 °C

Q: With `COc1ccc(Cc2nc3c(c(SC)nn3-c3c(Cl)cc(Br)cc3Cl)c(=O)[nH]2)cc1` [Example 183] as the compound, how does the melting point read?
A: 267 to 268 °C

Q: For `CCc1nn(-c2c(C)cccc2Cl)c2nc(Cc3ccc(O)cc3)[nH]c(=O)c12` [Example 184], which melting point is on record?
A: 255 to 256 °C

Q: Which melting point does the source give for `COc1ccc(Cc2nc3c(c(SC)nn3-c3c(C)cc(Cl)cc3Cl)c(=O)[nH]2)cc1` [Example 185] here?
A: 252 to 255 °C

Q: With `COc1ccc(Cc2nc3c(c(SC)nn3-c3c(C)cccc3Cl)c(=O)[nH]2)cc1` [Example 186] as the compound, how does the melting point read?
A: 233 to 235 °C

Q: For `CCc1nn(-c2c(C)cc(Cl)cc2Cl)c2nc(Cc3ccc(OC)cc3)[nH]c(=O)c12` [Example 187], which melting point is on record?
A: 245 to 246 °C

Q: With `CSc1nn(-c2c(C)cc(Cl)cc2Cl)c2nc(Cc3ccc(O)cc3)[nH]c(=O)c12` [Example 188] as the compound, how does the melting point read?
A: 277 to 279 °C

Q: With `CSc1nn(-c2c(C)cccc2Cl)c2nc(Cc3ccc(O)cc3)[nH]c(=O)c12` [Example 190] as the compound, how does the melting point read?
A: 264 to 266 °C

Q: Which melting point does the source give for `CCc1nn(-c2c(C)cccc2Cl)c2nc(Cc3ccc(OC)cc3)[nH]c(=O)c12` [Example 191] here?
A: 220 to 221 °C

Q: Which melting point does the source give for `CCc1nn(-c2c(C)cccc2Cl)c2nc(Cc3ccc(O)cc3)[nH]c(=O)c12` [Example 192] here?
A: 257 to 259 °C

Q: For `CCc1nn(-c2c(C)cccc2Cl)c2nc(Cc3cccc(OC)c3)[nH]c(=O)c12` [Example 193], which melting point is on record?
A: 188 to 190 °C

Q: For `CCc1nn(-c2c(Cl)cc(C(=O)O)cc2Cl)c2nc(Cc3ccc(OC)cc3)[nH]c(=O)c12` [Example 195], which melting point is on record?
A: 292 to 294 °C

Q: With `CCc1nn(-c2c(Cl)cc(C(=O)O)cc2Cl)c2nc(Cc3ccc(O)cc3)[nH]c(=O)c12` [Example 196] as the compound, how does the melting point read?
A: 308 to 310 °C

Q: With `CCc1nn(-c2c(Cl)cc(C(=O)O)cc2Cl)c2nc(Cc3cccc(O)c3)[nH]c(=O)c12` [Example 198] as the compound, how does the melting point read?
A: 280 to 282 °C

Q: With `Cc1cccc(Cl)c1-n1nc(C(C)C)c2c(=O)[nH]c(Cc3ccc(N)cc3)nc21` [Example 199] as the compound, how does the melting point read?
A: 205 to 206 °C

Q: For `CCc1nn(-c2c(Cl)cc(C(=O)NC)cc2Cl)c2nc(Cc3ccc(OC)cc3)[nH]c(=O)c12` [Example 201], which melting point is on record?
A: 278 to 280 °C

Q: With `CCc1nn(-c2c(Cl)cc(C(=O)O)cc2Cl)c2nc(Cc3ccc(N)cc3)[nH]c(=O)c12` [Example 205] as the compound, how does the melting point read?
A: 226 to 228 °C

Q: Which melting point does the source give for `COc1cccc(Cc2nc3c(c(CO)nn3-c3c(Cl)cc(Cl)cc3Cl)c(=O)[nH]2)c1` [Example 208] here?
A: 227 to 229 °C

Q: With `Cc1cc(Cl)cc(Cl)c1-n1nc(C(C)C)c2c(=O)[nH]c(Cc3ccc(N)cc3)nc21` [Example 217] as the compound, how does the melting point read?
A: 212 to 213 °C

Q: With `COc1cccc(Cc2nc3c(c(C(C)C)nn3-c3c(Cl)cc(S(N)(=O)=O)cc3Cl)c(=O)[nH]2)c1` [Example 225] as the compound, how does the melting point read?
A: 244 to 245 °C

Q: Which melting point does the source give for `CCc1nn(-c2cc(C(F)(F)F)ccc2Cl)c2nc(Cc3cccc(O)c3)[nH]c(=O)c12` [Example 227] here?
A: 227 to 229 °C

Q: With `CCNC(=O)c1cc(Cl)c(-n2nc(CC)c3c(=O)[nH]c(Cc4cccc(OC)c4)nc32)c(Cl)c1` [Example 236] as the compound, how does the melting point read?
A: 226 to 228 °C

Q: For `CCc1nn(-c2c(Cl)cc(C(=O)NC(C)(C)C)cc2Cl)c2nc(Cc3cccc(OC)c3)[nH]c(=O)c12` [Example 238], which melting point is on record?
A: 222 to 224 °C
